Laboratory results: patent US20070004660A1, “Synergistic Modulation of Flt3 Kinase Using Alkylquinolines and Alkylquinazolines” (priority 2005, published 2007)
pIC50: −log10 of the molar value.

Target: T1, wild-type FLT3 receptor (Homo sapiens, UniProt P36888)
T1 construct: host or cells: Baf3 (murine B cell lymphoma line), stably transfected
T1 sequence (P36888 27-993): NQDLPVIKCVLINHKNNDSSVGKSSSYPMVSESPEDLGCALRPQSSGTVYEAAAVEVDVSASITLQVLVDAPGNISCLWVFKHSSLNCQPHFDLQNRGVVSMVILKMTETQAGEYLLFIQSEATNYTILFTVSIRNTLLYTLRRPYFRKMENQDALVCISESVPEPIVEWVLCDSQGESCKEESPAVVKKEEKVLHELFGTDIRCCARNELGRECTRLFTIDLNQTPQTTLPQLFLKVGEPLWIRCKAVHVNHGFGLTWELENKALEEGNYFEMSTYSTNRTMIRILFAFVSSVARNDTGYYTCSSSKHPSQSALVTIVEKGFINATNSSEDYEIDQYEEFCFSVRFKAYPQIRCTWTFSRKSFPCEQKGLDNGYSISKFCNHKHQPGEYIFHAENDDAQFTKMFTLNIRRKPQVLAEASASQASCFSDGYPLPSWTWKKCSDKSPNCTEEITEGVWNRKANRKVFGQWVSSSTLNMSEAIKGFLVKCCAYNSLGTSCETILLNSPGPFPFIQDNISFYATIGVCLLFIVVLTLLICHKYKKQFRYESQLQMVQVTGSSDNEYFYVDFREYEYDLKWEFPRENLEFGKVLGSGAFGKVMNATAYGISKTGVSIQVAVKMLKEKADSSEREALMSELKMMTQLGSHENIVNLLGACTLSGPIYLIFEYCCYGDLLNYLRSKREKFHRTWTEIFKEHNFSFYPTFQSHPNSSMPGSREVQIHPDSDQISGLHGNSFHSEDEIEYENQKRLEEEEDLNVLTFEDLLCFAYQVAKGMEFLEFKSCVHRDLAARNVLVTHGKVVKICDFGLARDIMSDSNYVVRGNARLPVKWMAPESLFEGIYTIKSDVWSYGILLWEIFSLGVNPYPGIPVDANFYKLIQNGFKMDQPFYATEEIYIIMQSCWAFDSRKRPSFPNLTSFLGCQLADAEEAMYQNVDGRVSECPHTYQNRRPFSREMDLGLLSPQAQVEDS
Experiment: Cell-based FLT3 receptor ELISA (FLT ligand-induced phosphorylation in Baf3 FLT3 cells)
Conditions: 100 ng/mL Flt ligand, uncertainty ±20%
Method in brief: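 Receptor phosphotyrosine measured by sandwich ELISA (anti-FLT3 capture, HRP anti-pTyr, luminescence) in FLT3-transfected murine Baf3 cells given 1 h compound pretreatment and 10 min 100 ng/mL FLT ligand after overnight low-serum starvation; triplicates, IC50 from nonlinear regression.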

Row | pIC50 | SMILES
1 | 6.96 | O=C(Nc1ccc(N2CCCC2)cc1)N1CCC(c2ncnc3cc(O[C@H]4CCOC4)ccc23)CC1 [Compound 190, (S)-4-[7-(Tetrahydro-furan-3-yloxy)-quinazolin-4-yl]-piperidine-1-carboxylic acid (4-pyrrolidin-1-yl-phenyl)-amide]
2 | 7.26 | CC(C)Oc1ccc(NC(=O)N2CCC(c3ncnc4ccc(C#CCN5CCOCC5)cc34)CC2)cc1 [Example 15, 4-[6-(3-Morpholin-4-yl-prop-1-ynyl)-quinazolin-4-yl]-piperidine-1-carboxylic acid (4-isopropoxy-phenyl)-amide]
